This is an account of results in patent US8362090B2, “Methods and related compositions using specific flavonoids and indanes to reduce weight and inhibit lipase, α-amylase and α-glucosidase activity in mammals” (Gateway Health Alliances, Inc., priority 2007, dated 2013).

One assay has as its target T1, Human pancreatic lipase (Homo sapiens, UniProt P16233).
T1 construct: purchased Sigma
T1 sequence (P16233 17-465): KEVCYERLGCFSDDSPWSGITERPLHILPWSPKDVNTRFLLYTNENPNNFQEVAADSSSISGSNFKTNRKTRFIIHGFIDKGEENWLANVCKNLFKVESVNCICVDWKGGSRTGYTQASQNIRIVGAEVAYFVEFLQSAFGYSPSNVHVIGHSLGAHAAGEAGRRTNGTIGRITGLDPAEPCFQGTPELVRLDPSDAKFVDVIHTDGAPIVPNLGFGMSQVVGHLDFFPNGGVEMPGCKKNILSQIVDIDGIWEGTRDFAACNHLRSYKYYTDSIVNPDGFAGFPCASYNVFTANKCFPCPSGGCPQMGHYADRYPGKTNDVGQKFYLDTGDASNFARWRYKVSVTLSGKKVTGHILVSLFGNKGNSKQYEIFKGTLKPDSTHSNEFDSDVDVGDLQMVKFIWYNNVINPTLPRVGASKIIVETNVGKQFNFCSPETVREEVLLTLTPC
T1 sequence (P02703 23-112 partner): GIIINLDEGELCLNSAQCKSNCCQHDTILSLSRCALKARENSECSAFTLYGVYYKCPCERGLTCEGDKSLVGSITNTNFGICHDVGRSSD
The assay is described as follows: Lipase assay (Sigma Lipase-PS Kit). The format is biochemical. The following applies: same top concentration (0.15 mg/ml). The procedure:
(§1) The purified compounds and extracts were made up 2 mg/ml solutions in water using initially a drop of DMSO if required for solubility.
Sigma Lipase-PS Kit (Catalogue Number 805-A)
Human pancreatic lipase was diluted 1.5:5 prior to use. […] Color formation was measured at 550 nm after 30 minutes.

Assay [1] addresses T2, porcine pancreatic amylase (Sus scrofa, UniProt P00690).
T2 construct: purchased Sigma A6255
T2 sequence (P00690 16-511): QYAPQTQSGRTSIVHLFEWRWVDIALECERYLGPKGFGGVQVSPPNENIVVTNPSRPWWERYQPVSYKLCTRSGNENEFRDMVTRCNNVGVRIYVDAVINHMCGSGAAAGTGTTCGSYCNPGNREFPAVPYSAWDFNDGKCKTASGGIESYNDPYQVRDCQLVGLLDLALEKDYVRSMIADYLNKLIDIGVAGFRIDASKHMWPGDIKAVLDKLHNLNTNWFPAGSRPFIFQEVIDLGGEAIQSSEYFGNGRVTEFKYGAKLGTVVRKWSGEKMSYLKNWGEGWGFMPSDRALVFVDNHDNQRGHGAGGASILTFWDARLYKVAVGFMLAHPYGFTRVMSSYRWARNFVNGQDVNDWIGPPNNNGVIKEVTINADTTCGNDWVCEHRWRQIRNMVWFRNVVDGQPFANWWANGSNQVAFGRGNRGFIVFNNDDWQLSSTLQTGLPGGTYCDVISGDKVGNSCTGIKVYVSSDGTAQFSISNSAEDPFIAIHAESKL
The assay is described as follows: Amylase assay (Sigma INFINITY reagent). The note with it: tested at 0.12 mg/ml, mean n=3. The format is biochemical, pig. The procedure: as §1
Sigma INFINITY Powder Reagent (Catalogue Number 568-20)
Sigma α-amylase (A6255, porcine pancreatic amylase as saline suspension), diluted to 35 units/ml. […] The rate of color formation was measured over five minutes, after which the final absorbance was measured at 405 nm as an endpoint recording.

Assay [2] relates to α-glucosidase (G5003, from S. cerevisiae). Kind of assay: α-Glucosidase assay (p-nitrophenyl-α-D-glucopyranoside). The format is biochemical. The following applies: tested at 0.28 mg/ml, mean n=3. The procedure: as §1

On to `CCCCCCCCCCC[C@@H](C[C@@H]1OC(=O)[C@H]1CCCCCC)OC(=O)[C@H](CC(C)C)NC=O` [Orlistat], for which the inhibition at 150 µg/mL against Human pancreatic lipase is at most 60%. Regarding `COc1cc(O)c2c(=O)c(O[C@@H]3O[C@@H](C)[C@H](O)[C@@H](O)[C@H]3O)c(-c3ccc(O)c(O)c3)oc2c1` [compound 3, rhamnitrin], in assay [1], the “α-amylase inhibition (in words, FIG. 2)” value is listed as “inhibition to be restored”.

For `Oc1ccc(/C=C2\c3cc(O)cc(O)c3C(c3ccc(O)cc3)C2c2cc(O)cc(O)c2)cc1` (stereo not drawn) [compound 6, parthenocissin A], in assay [1], the “α-amylase inhibition (in words, FIG. 2)” value is “good inhibition”. Take `Oc1ccc(C=C2c3c(O)cc(O)cc3C(c3ccc(O)cc3)C2c2cc(O)ccc2O)cc1` (stereo not drawn) [compound 7, 3-(4-hydroxybenzylidene)-2-(2,5-dihydroxyphenyl)-1-(4-hydroxyphenyl)indane-4,6-diol]: the “α-glucosidase inhibition (in words, FIG. 2)” value in assay [2] was “fairly specific as an inhibitor”. With quercitrin-3-O″-acetate [compound 5], the “α-amylase inhibition (in words, FIG. 2)” value in assay [1] is “inhibition to be restored”. Further, the “α-glucosidase inhibition (in words, FIG. 2)” value in assay [2] was “promoted the glucosidase activity”.

The inhibition is the percentage by which the read-out fell short of the control. A lower inhibition goes with little suppression.
